Measurements from ChEMBL document CHEMBL4184112, “Spiroorthoester group-containing pregnane glycosides from the root barks of Periploca chrysantha and their inhibitory activities against the proliferation of B and T lymphocytes” (Bioorg Med Chem Lett, 2018).

Columns and labels:
[1] = Cytotoxicity against lymphocytes (unknown origin) assessed as decrease in cell viability; assay type: cell-based, Lymphocyte
[2] = Inhibition of LPS-induced B lymphocytes (unknown origin) proliferation; assay type: functional
[3] = Selectivity index, ratio of CC50 for lymphocytes (unknown origin) to IC50 for ConA-induced T lymphocytes (unknown origin) proliferation; assay type: toxicity; conditions: read-out: Ratio CC50/IC50
[4] = Selectivity index, ratio of CC50 for lymphocytes (unknown origin) to IC50 for LPS-induced B lymphocytes (unknown origin) proliferation; assay type: toxicity; conditions: read-out: Ratio CC50/IC50
[5] = system: T-cell; assay: Inhibition of ConA-induced T lymphocytes (unknown origin) proliferation; assay type: functional, cell-based

Question: Which CC50 [1] does the source give for `CO[C@H]1[C@@H](O)[C@@H](C)O[C@@H](O[C@H]2[C@@H](OC)C[C@H](O[C@H]3[C@@H](OC)C[C@H](O[C@H]4[C@@H](O)C[C@H](O[C@@H]5[C@@H](C)O[C@@]6(C[C@H]5OC)OCO[C@@H]5C[C@H](O[C@@H](C)[C@@]7(O)CC[C@H]8[C@@H]9CC=C%10C[C@@H](O)CC[C@]%10(C)[C@H]9CC[C@@]87C)O[C@H](C)[C@H]5O6)O[C@@H]4C)O[C@@H]3C)O[C@@H]2C)[C@@H]1O` here?
Answer: Its CC50 is over 200 µM.

Question: What about the IC50 [2] of the same compound?
Answer: The IC50 was 0.75 µM.

Question: And the selectivity ratio [3]?
Answer: Its selectivity ratio is over 426.

Question: What about the selectivity ratio [4] of the same compound?
Answer: Its selectivity ratio is over 267.

Question: And the IC50 [5]?
Answer: Its IC50 is 0.47 µM.

Question: For `CO[C@H]1[C@@H](O)[C@@H](C)O[C@@H](O[C@H]2[C@@H](OC)C[C@H](O[C@H]3[C@H](O)C[C@H](O[C@H]4[C@@H](OC)C[C@H](O[C@@H]5[C@@H](C)O[C@@]6(C[C@H]5OC)OCO[C@@H]5C[C@H](O[C@@H](C)[C@@]7(O)CC[C@H]8[C@@H]9CC=C%10C[C@@H](O)CC[C@]%10(C)[C@H]9CC[C@@]87C)O[C@H](C)[C@H]5O6)O[C@@H]4C)O[C@@H]3C)O[C@@H]2C)[C@@H]1OC(C)=O`, which CC50 [1] is on record?
Answer: The CC50 was 124 µM.

Question: And the IC50 [2]?
Answer: Its IC50 is 1.13 µM.

Question: What about the selectivity ratio [3] of the same compound?
Answer: The selectivity ratio was 706.

Question: And the selectivity ratio [4]?
Answer: The selectivity ratio was 110.

Question: What about the IC50 [5] of the same compound?
Answer: The IC50 was 0.18 µM.

Question: With `CO[C@H]1C[C@H](O[C@H]2[C@@H](OC)C[C@H](O[C@H]3[C@H](O)C[C@H](O[C@H]4[C@@H](O)C[C@H](O[C@@H]5[C@@H](C)O[C@@]6(C[C@H]5OC)OCO[C@@H]5C[C@H](O[C@@H](C)[C@@]7(O)CC[C@H]8[C@@H]9CC=C%10C[C@@H](O)CC[C@]%10(C)[C@H]9CC[C@@]87C)O[C@H](C)[C@H]5O6)O[C@@H]4C)O[C@@H]3C)O[C@@H]2C)O[C@H](C)[C@H]1OC(C)=O` as the compound, how does the CC50 [1] read?
Answer: Its CC50 is over 200 µM.

Question: What about the IC50 [2] of the same compound?
Answer: Its IC50 is 1.74 µM.

Question: And the selectivity ratio [3]?
Answer: The selectivity ratio was over 136.

Question: And the selectivity ratio [4]?
Answer: The selectivity ratio was over 145.

Question: What about the IC50 [5] of the same compound?
Answer: Its IC50 is 1.47 µM.

Question: Which CC50 [1] does the source give for `CO[C@H]1[C@@H](O)[C@@H](C)O[C@@H](O[C@H]2[C@@H](OC)C[C@H](O[C@H]3[C@@H](OC)C[C@H](O[C@H]4[C@@H](OC)C[C@H](O[C@@H]5[C@@H](C)O[C@@]6(C[C@H]5OC)OCO[C@@H]5C[C@H](O[C@@H](C)[C@@]7(O)CC[C@H]8[C@@H]9CC=C%10C[C@@H](OC=O)CC[C@]%10(C)[C@H]9CC[C@@]87C)O[C@H](C)[C@H]5O6)O[C@@H]4C)O[C@@H]3C)O[C@@H]2C)[C@@H]1O` here?
Answer: Its CC50 is 146 µM.

Question: And the IC50 [2]?
Answer: Its IC50 is 0.86 µM.

Question: And the selectivity ratio [3]?
Answer: Its selectivity ratio is 347.

Question: And the selectivity ratio [4]?
Answer: The selectivity ratio was 170.

Question: And the IC50 [5]?
Answer: The IC50 was 0.42 µM.
